Measured values: US20260234115A1, “LIPID COMPOUNDS, COMPOSITIONS, AND USES THEREOF” (Liberate Bio, Inc., priority 2023, published 2026)
Marks after values point to notes of the source that are not given here. Values belong to the compound of their own block, whether it stands above or below them.

Assays:
NHP organs = assay: In vivo activity screening in non-human primates: mean normalized UMI counts of barcoded mRNA in tissues after IV infusion of pooled F2 LNPs (Table 7, FIG. 8-11); parameters: species or system cynomolgus monkeys (Macaca fascicularis)
Protocol: Non-human primate (NIIP) biodistribution studies were performed in cynomolgus monkeys (e.g., Macaca fascicularis), aged 4-6 years. Animals were premedicated with dexamethasone, famotidine and diphenhydramine (at 1, 0.5 and 5 mg/kg, respectively) −2 and −1 day prior to test material dosing. LNP formulations (prepared in Formulation F2 from Example 1) were prepared with ionizable lipids so that each LNP formulation encapsulates one or more mRNAs with predetermined unique barcode sequences as their cargo. LNPs in PBS, identified by their unique barcoded mRNA cargo, are then pooled together at predetermined ratios. To evaluate LNP biodistribution into tissues upon systemic administration, NHPs received the dose administration by single intravenous infusion via peripheral vein (cephalic, saphenous, or another available) for 30 minutes with LNP dosing material (individual or pooled) in PBS at different total dose (0.5-1 mg/kg) levels.
At predetermined time points (4-6 hours after pooled test material administration), animals were sacrificed by exsanguination via the femoral artery after the intravenous injection of ketamine (10 mg/kg) and Euthasol® (0.25 mL/kg). Then, all animals underwent whole-body perfusion with PBS prior to tissue collection. 20-25 mg samples for biodistribution analysis were collected from all treatment group animals and then placed in sample tubes containing RNALater™ solution. All tissue samples were stored at room temperature for 24 hours, then the supernatants were removed, and samples were frozen.
To determine the unique LNPs distributed in the tissues, samples were homogenized by a tissue homogenizer (e.g., TissueLyser). Total RNA from the tissue homogenates were extracted by standard methods. Then, normalized amounts of RNA were sequenced using a targeted RNA sequencing approach with unique molecular identifiers (UMI) to ensure accurate RNA molecule counting. For each tissue, the resulting RNA molecule counts were normalized by pooled test article RNA counts. The results were analyzed using the internal bioinformatics pipeline.
LNPs comprising MC3 used as a control and for cross-mouse comparison. Dose is in mg/kg; LC is Lipid Compound according to Table 1.
Screening results for NHP Group 1 (spleen, femur, and muscle) are shown in FIG. 8A, FIG. 8B, and FIG. 8C.

mouse organs = assay: In vivo activity screening in mice: organ mean total flux (p/s) of luciferase activity after injection of F2 LNP pools (Table 6, FIG. 7A-7C); conditions: Mouse 9, dose 0.5 mg/kg, luciferase mRNA
In short: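 Luciferase output per organ is reported as mean total flux (p/s) from IVIS regions of interest. Organs were collected from perfused C57BL/6J mice and imaged 10-15 min after s.c. D-luciferin, 4-6 h after i.v. dosing. Dosing was 0.25-3 mg/kg luciferase mRNA in F2 LNP pools.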

SMILES: CCCCC/C=C\CCOC(=O)CCCCC(=O)OCC(COC(=O)CCCCC(=O)OCC/C=C\CCCCC)(COC(=O)CCC(CCCCCC)OC(=O)C12CCN(CC1)CC2)COC(=O)CC12CC3CC(CC(C3)C1)C2 (stereo not shown) [Compound 62, O6-[2-[[2-(1-adamantyl)acetyl]oxymethyl]-2-[[6-[(Z)-non-3-enoxy]-6-oxo-hexanoyl]oxymethyl]-3-[4-(quinuclidine-4-carbonyloxy)decanoyloxy]propyl]O1-[(Z)-non-3-enyl]hexanedioate]
Mean normalized UMI counts (×10^4) Bone Marrow (NHP organs; NHP 2, bone marrow, pooled F2 LNPs, IV infusion, 4-6 hours): 19.0 ×10^4 | Mean normalized UMI counts (×10^4) Brain (NHP organs; NHP 2, brain, pooled F2 LNPs, IV infusion, 4-6 hours): 3.8 ×10^4 | Mean normalized UMI counts (×10^4) Heart (NHP organs; NHP 2, heart, pooled F2 LNPs, IV infusion, 4-6 hours): 87.0 ×10^4 | Mean normalized UMI counts (×10^4) Kidney (NHP organs; NHP 2, kidney, pooled F2 LNPs, IV infusion, 4-6 hours): 21.9 ×10^4 | Mean normalized UMI counts (×10^4) Liver (NHP organs; NHP 2, liver, pooled F2 LNPs, IV infusion, 4-6 hours): 27.4 ×10^4 | Mean normalized UMI counts (×10^4) Lung (NHP organs; NHP 2, lung, pooled F2 LNPs, IV infusion, 4-6 hours): 21.8 ×10^4 | Mean normalized UMI counts (×10^4) Muscle (NHP organs; NHP 2, muscle, pooled F2 LNPs, IV infusion, 4-6 hours): 43.9 ×10^4 | Mean normalized UMI counts (×10^4) Pancreas (NHP organs; NHP 2, pancreas, pooled F2 LNPs, IV infusion, 4-6 hours): 8.1 ×10^4 | Mean normalized UMI counts (×10^4) Spleen (NHP organs; NHP 2, spleen, pooled F2 LNPs, IV infusion, 4-6 hours): 29.8 ×10^4 | Organ Mean Total Flux Femur (mouse organs): 0.6 p/s (×10^6) | Organ Mean Total Flux Heart (mouse organs): 0.1 p/s (×10^6) | Organ Mean Total Flux Kidney (mouse organs): 0.3 p/s (×10^6) | Organ Mean Total Flux Liver (mouse organs): 38.0 p/s (×10^6) | Organ Mean Total Flux Lung (mouse organs): 2.5 p/s (×10^6) | Organ Mean Total Flux Muscle (mouse organs): 1.4 p/s (×10^6) | Organ Mean Total Flux Pancreas (mouse organs): 0.5 p/s (×10^6) | Organ Mean Total Flux Spleen (mouse organs): 3.3 p/s (×10^6)

Mean normalized UMI counts (×10^4) Bone Marrow (NHP organs; cynomolgus monkey, in vivo, iv): 233.0 ×10^4 | Mean normalized UMI counts (×10^4) Brain (NHP organs; cynomolgus monkey, in vivo, iv): 72.8 ×10^4 | Mean normalized UMI counts (×10^4) Heart (NHP organs; cynomolgus monkey, in vivo, iv): 115.8 ×10^4 | Mean normalized UMI counts (×10^4) Kidney (NHP organs; cynomolgus monkey, in vivo, iv): 153.6 ×10^4 | Mean normalized UMI counts (×10^4) Liver (NHP organs; cynomolgus monkey, in vivo, iv): 108.2 ×10^4 | Mean normalized UMI counts (×10^4) Lung (NHP organs; cynomolgus monkey, in vivo, iv): 139.5 ×10^4 | Mean normalized UMI counts (×10^4) Muscle (NHP organs; cynomolgus monkey, in vivo, iv): 142.7 ×10^4 | Mean normalized UMI counts (×10^4) Pancreas (NHP organs; cynomolgus monkey, in vivo, iv): 89.4 ×10^4 | Mean normalized UMI counts (×10^4) Spleen (NHP organs; cynomolgus monkey, in vivo, iv): 207.6 ×10^4
SMILES: CCCCC/C=C\CCOC(=O)CCCCC(=O)OCC(COC(=O)CCCCC(=O)OCC/C=C\CCCCC)(COC(=O)CCC(CCCCCC)OC(=O)NCCN1CCCC1)COC(=O)C12CC3CC(CC(C3)C1)C2 (stereo not shown) [Compound 63, O6-[2-(adamantane-1-carbonyloxymethyl)-2-[[6-[(Z)-non-3-enoxy]-6-oxo-hexanoyl]oxymethyl]-3-[4-(2-pyrrolidin-1-ylethylcarbamoyloxy)decanoyloxy]propyl]O1-[(Z)-non-3-enyl]hexanedioate]
Organ Mean Total Flux Femur (mouse organs): 10.4 p/s (×10^6) | Organ Mean Total Flux Heart (mouse organs): 1.9 p/s (×10^6) | Organ Mean Total Flux Kidney (mouse organs): 2.4 p/s (×10^6) | Organ Mean Total Flux Liver (mouse organs): 351.7 p/s (×10^6) | Organ Mean Total Flux Lung (mouse organs): 37.3 p/s (×10^6) | Organ Mean Total Flux Muscle (mouse organs): 37.4 p/s (×10^6) | Organ Mean Total Flux Pancreas (mouse organs): 15.8 p/s (×10^6) | Organ Mean Total Flux Spleen (mouse organs): 40.7 p/s (×10^6)
